{"source": "patent US6991780B2", "about": "“Aluminum-zirconium antiperspirant salts with low M:CI ratio” (The Gillette Company, priority 2000, dated 2006)", "key": {"[1]": {"test": "HPLC aluminum peak distribution after storage (stability of enhanced state)", "type": "physicochemical", "settings": "aqueous solution", "experimental": "Throughout the specification reference to HPLC analysis means that chromatograms are obtained as follows: Salt solutions are evaluated for aluminum polymer distribution by HPLC at a concentration of about 10% (USP) Al—Zr salt. If the solution to be analyzed is at a higher salt concentration, it is diluted with sufficient water to bring the salt concentration to about 10%. A 1.0 μL sample is injected into a Waters U6K injector, then pumped through a 4.6 mm×500 mm column packed with Nucleosil 100-5 silica with pore size of 100 angstroms and particle size of 5 μm (Keystone Scientific Inc.) using a 0.01M aqueous nitric acid solution as the eluant. The flow rate of the mobile phase is controlled at 0.5 mL/min with an LDC/Milton Roy Constametric-II metering pump (ThermoQuest Inc.). HPLC profiles are recorded and processed with a computerized system that includes the Millennium 32 Chromatography Manager software from Waters Corp. A Waters 2410 differential refractometer is used as the refractive index detector. The HPLC profiles are read from left to right (higher to lower molecular weight). Following this technique, peak 3 typically appears at a retention time of about 11.0–12.0 minutes (Kd≅0.58–0.61), peak 4 typically appears at a retention time of about 11.9–12.9 minutes (Kd≅0.62–0.72), and peak 5 typically appears at a retention time of about 13.3–14.0 minutes (Kd≅0.83–0.91). […]"}, "[2]": {"tested_on": "volunteer panelists (axilla)", "test": "standard hot room thermal efficacy (sweat reduction), test product on one axilla vs control on the other", "type": "in vivo, human", "settings": "for antiperspirant efficacy compared with conventional enhanced antiperspirant salt (EAZCH): in words, from Table 2 data", "excerpt": "The above-described enhanced efficacy salt may be tested for thermal efficacy (i.e. hot room sweat reduction) using volunteer panelists in a standard hot room protocol. The test product (vehicle plus enhanced efficacy salt) is applied to one axilla and control product (vehicle only or vehicle plus standard efficacy antiperspirant salt) is applied to the other axilla. The above-described enhanced efficacy salt typically provides a sweat reduction of about 57–62% versus about 47–52% obtained with standard efficacy salt, when suspended as an 18–19% USP active in a liquid volatile silicone carrier vehicle. Also, a freshly prepared aqueous solution of the above-described enhanced efficacy salt (20% USP active) typically provides a sweat reduction of about 63–69% versus about 48–54% obtained with standard efficacy salt in aqueous solution at the same concentration.\nThe above-described high peak 5 enhanced efficacy salts of Example 1 are tested for thermal efficacy (i.e. hot room sweat reduction) using volunteer panelists in a standard hot room protocol. The test product is applied to one axilla and control product is applied to the other axilla in an AvB comparison. In all cases, the test product comprises vehicle (as described below) plus high peak 5 enhanced efficacy salt (E^5AZCH). The control product comprises vehicle plus conventional enhanced efficacy (high peak 4:3) antiperspirant salt (EAZCH), except where the vehicle is a clear gel formulation, in which case a standard efficacy salt (AZCH) is used because of the instability of the conventional enhanced salt in aqueous formulations. To counteract this instability, the formulation identified as “Aqueous” below, is freshly prepared with powdered EAZCH just prior to being tested. The results are reported as the average sweat reduction (“S.R.”) gain over the control (i.e. the absolute percentage point increase in sweat reduction over the control)."}, "[3]": {"settings": "aqueous solution, 20% USP active (enhanced salt freshly prepared)"}, "[4]": {"settings": "suspended as 18–19% USP active in liquid volatile silicone carrier vehicle"}}, "note": "Several values for one entry are separate records, joined by “and”; a condition that tells them apart may be missing. Equal values may be shown once.", "data": [{"substance": "aluminum-zirconium tetrachlorohydrate [EAZCH, reference compound]", "values": [{"measurement": "stability of enhanced state (peak 4:3 ratio) in aqueous form", "setting": "[1]", "value": "peak 4:3 ratio deteriorates very quickly"}, {"measurement": "sweat reduction", "setting": "[2]; [3]", "value": "63–69%"}, {"measurement": "sweat reduction", "setting": "[2]; [4]", "value": "57–62%"}]}, {"substance": "aluminum-zirconium chlorohydrate [salt F]", "values": [{"measurement": "antiperspirant efficacy compared with conventional enhanced antiperspirant salt (EAZCH)", "setting": "[2]; listed as F", "value": "more efficacious"}, {"measurement": "Avg. S.R. Gain Over Control", "setting": "[2]; vehicle Aqueous (20% USP AP active), control EAZCH freshly prepared, listed as F", "value": 4.5, "unit": "percentage point"}, {"measurement": "Avg. S.R. Gain Over Control", "setting": "[2]; vehicle Solid (23.5% AP active), control EAZCH, listed as F", "value": 4.0, "unit": "percentage point"}]}, {"substance": "aluminum-zirconium chlorohydrate [salt J]", "values": [{"measurement": "antiperspirant efficacy compared with conventional enhanced antiperspirant salt (EAZCH)", "setting": "[2]; listed as J", "value": "more efficacious"}, {"measurement": "Avg. S.R. Gain Over Control", "setting": "[2]; vehicle Aqueous (20% USP AP active), control EAZCH freshly prepared, listed as J", "value": 4.3, "unit": "percentage point"}]}, {"substance": "aluminum-zirconium chlorohydrate-gly [AZCH, reference compound]", "values": [{"measurement": "sweat reduction", "setting": "[2]; [3]", "value": "48–54%"}, {"measurement": "sweat reduction", "setting": "[2]; [4]", "value": "47–52%"}]}, {"substance": "aluminum-zirconium chlorohydrate [salt D]", "values": [{"measurement": "antiperspirant efficacy compared with conventional enhanced antiperspirant salt (EAZCH)", "setting": "[2]; listed as D", "value": "more efficacious"}, {"measurement": "Avg. S.R. Gain Over Control", "setting": "[2]; vehicle Aqueous (20% USP AP active), control EAZCH freshly prepared, listed as D", "value": "5.9 percentage point and 4.6 percentage point"}, {"measurement": "Avg. S.R. Gain Over Control", "setting": "[2]; vehicle Roll-On (20.0% AP active), control EAZCH, listed as D", "value": 8.7, "unit": "percentage point"}]}, {"substance": "aluminum-zirconium chlorohydrate [salt K]", "values": [{"measurement": "antiperspirant efficacy compared with conventional enhanced antiperspirant salt (EAZCH)", "setting": "[2]; listed as K", "value": "just as efficacious"}, {"measurement": "Avg. S.R. Gain Over Control", "setting": "[2]; vehicle Aqueous (20% USP AP active), control EAZCH freshly prepared, listed as K", "value": 1.7, "unit": "percentage point"}]}, {"substance": "aluminum-zirconium chlorohydrate [salt E]", "values": [{"measurement": "antiperspirant efficacy compared with conventional enhanced antiperspirant salt (EAZCH)", "setting": "[2]; listed as E", "value": "just as efficacious"}, {"measurement": "Avg. S.R. Gain Over Control", "setting": "[2]; vehicle Aqueous (20% USP AP active), control EAZCH freshly prepared, listed as E", "value": 1.3, "unit": "percentage point"}]}, {"substance": "aluminum-zirconium chlorohydrate [salt G]", "values": [{"measurement": "antiperspirant efficacy compared with conventional enhanced antiperspirant salt (EAZCH)", "setting": "[2]; listed as G", "value": "just as efficacious"}, {"measurement": "Avg. S.R. Gain Over Control", "setting": "[2]; vehicle Solid (23.5% AP active), control EAZCH, listed as G", "value": 2.1, "unit": "percentage point"}]}, {"substance": "aluminum-zirconium chlorohydrate [salt A]", "values": [{"measurement": "antiperspirant efficacy compared with conventional enhanced antiperspirant salt (EAZCH)", "setting": "[2]; listed as A", "value": "more efficacious"}, {"measurement": "Avg. S.R. Gain Over Control", "setting": "[2]; vehicle Roll-On (20.0% AP active), control EAZCH, listed as A", "value": 5.8, "unit": "percentage point"}]}, {"substance": "aluminum-zirconium chlorohydrate [salt C]", "values": [{"measurement": "retention of efficacy on storage", "setting": "[2]; after storage of the clear gel at high temperature", "value": "maintains its high efficacy"}, {"measurement": "antiperspirant efficacy compared with current commercial clear gel product (standard efficacy salt)", "setting": "[2]; formulated as clear gel", "value": "substantially more efficacious"}, {"measurement": "antiperspirant efficacy compared with conventional enhanced antiperspirant salt (EAZCH)", "setting": "[2]; listed as C", "value": "more efficacious"}, {"measurement": "Avg. S.R. Gain Over Control", "setting": "[2]; vehicle Aqueous (20% USP AP active), control EAZCH freshly prepared, listed as C", "value": 4.2, "unit": "percentage point"}, {"measurement": "Avg. S.R. Gain Over Control", "setting": "[2]; vehicle Clear Gel (23.5% AP active), control AZCH", "value": 15.9, "unit": "percentage point"}, {"measurement": "Avg. S.R. Gain Over Control", "setting": "[2]; vehicle Clear Gel aged 3 months at 45° C., control AZCH", "value": 13.3, "unit": "percentage point"}]}, {"substance": "aluminum-zirconium chlorohydrate [salt H]", "values": [{"measurement": "antiperspirant efficacy compared with conventional enhanced antiperspirant salt (EAZCH)", "setting": "[2]; listed as H", "value": "just as efficacious"}, {"measurement": "Avg. S.R. Gain Over Control", "setting": "[2]; vehicle Aqueous (20% USP AP active), control EAZCH freshly prepared, listed as H", "value": 0.3, "unit": "percentage point"}]}, {"substance": "aluminum-zirconium octachlorohydrate-gly [salt B]", "values": [{"measurement": "antiperspirant efficacy compared with conventional enhanced antiperspirant salt (EAZCH)", "setting": "[2]", "value": "more efficacious"}, {"measurement": "retention of efficacy on storage", "setting": "[2]; stored as concentrated aqueous solution for 1.5 years", "value": "retains its superior efficacy"}, {"measurement": "Avg. S.R. Gain Over Control", "setting": "[2]; vehicle Aqueous, aged 1.5 years, control EAZCH", "value": 7.0, "unit": "percentage point"}]}]}
